# Measured values as given in article PMC8635623, “A click chemistry approach to pleuromutilin derivatives, evaluation of anti-MRSA activity and elucidation of binding mode by surface plasmon resonance and molecular docking” (Journal of Enzyme Inhibition and Medicinal Chemistry, 2021).
# Columns and labels:
# Assay in all cases: MIC/MBC by broth micro dilution
# [1] = tested on: MRSA ATCC 43300; format: cell-based, methicillin-resistant S. aureus; details: Staphylococcus aureus; for MIC: 37 °C, 24 h, read-out: MIC; for MBC: lowest concentration reducing viable counts by 99.9%
# Method: (§1) All the synthesised 1,2,3-triazole linked pleuromutilin analogues were screened for in vitro antibacterial activities against methicillin-resistant S. aureus (ATCC 43300), S. aureus (ATCC 29213), and two clinical strains of S. aureus (AD3 and 144, isolated from Guangdong Province, China). The MICs and MBCs of the synthesised pleuromutilin derivatives along with pleuromutilin and tiamulin used as the reference antibacterial drugs, were determined by the broth micro dilution methods according to the Clinical and Laboratory Standards Institute (CLSI)[18].
# (§2) The MIC of these novel pleuromutilin derivatives against methicillin-resistant S. aureus (ATCC 43300), S. aureus (ATCC 29213), S. aureus (AD3) and S. aureus (144) were determined by using pleuromutilin and tiamulin as positive control. MIC values were determined by the broth micro dilution methods in accordance with the Clinical and Laboratory Standards Institute (2012). Stock solutions of these compounds were dissolved in methanol to make a stock solution with a concentration of 1280 µg/mL. The working solutions (640 µg/mL) were obtained by diluting stock solutions in sterile Mueller-Hinton (MH) broth. The bacterial solution and solutions of these compounds with a final concentration of 0.016–32 µg/mL were distributed into 96-well plates, with a total volume of 200 µL. Three parallel experiments for each compound concentration. The plates were incubated at 37 °C for 24 h.
# (§3) MBC values were determined according to CLSI (2003) and previously report with slightly modification[18]^,[28]^,[31]. After obtaining the MIC results, the 96-well plates were incubated at 37 °C for 24 h. 100 µL of the bacterial solution from the wells with no visible growth was inoculated on MH agar plates. The MH agar plates were incubated at 37 °C for colony count. The MBC was determined as the lowest concentration of compound, which reduces the viable counts for 99.9%.
# [2] = tested on: S. aureus AD3; format: cell-based; details: Staphylococcus aureus, S. aureus AD3 (clinical strain); for MIC: 37 °C, 24 h; for MBC: lowest concentration reducing viable counts by 99.9%
# Method: as §1, §2, §3
# [3] = tested on: S. aureus 144; format: cell-based; details: Staphylococcus aureus, S. aureus 144 (clinical strain); for MIC: 37 °C, 24 h; for MBC: lowest concentration reducing viable counts by 99.9%
# Method: as §1, §2, §3
# [4] = tested on: S. aureus ATCC 29213; format: cell-based; details: Staphylococcus aureus; for MIC: ATCC29213, 37 °C, 24 h; for MBC: ATCC29213, lowest concentration reducing viable counts by 99.9%
# Method: as §1, §2, §3
SMILES,MIC [1] [µg/mL],MIC [2] [µg/mL],MIC [3] [µg/mL],MIC [4] [µg/mL],MBC [1] [µg/mL],MBC [2] [µg/mL],MBC [3] [µg/mL],MBC [4] [µg/mL]
"C=CC1(C)CC(OC(=O)Cn2cc(CN3CCC(O)CC3)nn2)C2(C)C(C)CCC3(CCC(=O)C32)C(C)C1O (centres unmarked) [Compound 83, 22-(2-(4-(4-Hydroxypiperidin-1-yl)methyl)-1H-1,2,3-triazol-1-yl)-22-deoxy pleuromutilin]",8,16,32,16,16,32,32,32
"C=C[C@]1(C)C[C@@H](OC(=O)Cn2cc(CN3CCN(c4ccc(O)cc4)CC3)nn2)[C@]2(C)[C@H](C)CC[C@]3(CCC(=O)[C@H]32)[C@@H](C)[C@@H]1O [Compound 67, 22-(2-(4-(4-(4-Hydroxyphenyl)-piperazin-1-yl)-methyl)-1H-1,2,3-triazol-1-yl)-22-deoxy pleuromutilin]",8,16,32,16,16,> 32,32,32
"C=C[C@]1(C)C[C@@H](OC(=O)Cn2cc(CN3CCN(c4ccc(F)cc4)CC3)nn2)[C@]2(C)[C@H](C)CC[C@]3(CCC(=O)[C@H]32)[C@@H](C)[C@@H]1O [Compound 55, 22-(2-(4-(4-(4-Fluorophenyl)-piperazin-1-yl)-methyl)-1H-1,2,3-triazol-1-yl)-22-deoxy pleuromutilin]",4,8,8,8,4,16,32,8
"C=C[C@]1(C)C[C@@H](OC(=O)Cn2cc(CN3CCN(c4ccc(OC)cc4)CC3)nn2)[C@]2(C)[C@H](C)CC[C@]3(CCC(=O)[C@H]32)[C@@H](C)[C@@H]1O [Compound 61, 22-(2-(4-(4-(4-Methoxyphenyl)-piperazin-1-yl)-methyl)-1H-1,2,3-triazol-1-yl)-22-deoxy pleuromutilin]",4,4,8,4,16,8,16,8
"C=CC1(C)CC(OC(=O)Cn2cc(CN3CCCC(CO)C3)nn2)C2(C)C(C)CCC3(CCC(=O)C32)C(C)C1O (centres unmarked) [Compound 84, 22-(2-(4-(3-(Hydroxymethyl)piperidin-1-yl)methyl)-1H-1,2,3-triazol-1-yl)-22-deoxy pleuromutilin]",8,16,32,16,16,32,32,32
"C=CC1(C)CC(OC(=O)Cn2cc(CN3CCOCC3)nn2)C2(C)C(C)CCC3(CCC(=O)C32)C(C)C1O (centres unmarked) [Compound 82, 22-(2-(4-(Morpholinomethyl)methyl)-1H-1,2,3-triazol-1-yl)-22-deoxy pleuromutilin]",8,16,16,16,8,32,32,16
"C=C[C@]1(C)C[C@@H](OC(=O)Cn2cc(CN3CCN(c4ccccc4OC)CC3)nn2)[C@]2(C)[C@H](C)CC[C@]3(CCC(=O)[C@H]32)[C@@H](C)[C@@H]1O [Compound 59, 22-(2-(4-(4-(2-Methoxyphenyl)-piperazin-1-yl)-methyl)-1H-1,2,3-triazol-1-yl)-22-deoxy pleuromutilin]",4,4,8,8,4,16,16,8

# The remaining compounds from weak to strong by MIC [1], led by results:
MIC [1] [µg/mL],MIC [2] [µg/mL],MIC [3] [µg/mL],MIC [4] [µg/mL],SMILES,MBC [1] [µg/mL],MBC [2] [µg/mL],MBC [3] [µg/mL],MBC [4] [µg/mL]
8,16,16,16,"C=CC1(C)CC(OC(=O)Cn2cc(CN3CCC(CCO)CC3)nn2)C2(C)C(C)CCC3(CCC(=O)C32)C(C)C1O (centres unmarked) [Compound 85, 22-(2-(4-(4-(2-Hydroxyethyl)piperidin-1-yl)methyl)-1H-1,2,3-triazol-1-yl)-22-deoxy pleuromutilin]",8,32,32,32
4,4,8,8,"C=C[C@]1(C)C[C@@H](OC(=O)Cn2cc(CN3CCN(c4cccc(OC)c4)CC3)nn2)[C@]2(C)[C@H](C)CC[C@]3(CCC(=O)[C@H]32)[C@@H](C)[C@@H]1O [Compound 60, 22-(2-(4-(4-(3-Methoxyphenyl)-piperazin-1-yl)-methyl)-1H-1,2,3-triazol-1-yl)-22-deoxy pleuromutilin]",8,16,16,8
4,16,8,8,"C=C[C@]1(C)C[C@@H](OC(=O)Cn2cc(CN3CCN(c4cccc(Cl)c4)CC3)nn2)[C@]2(C)[C@H](C)CC[C@]3(CCC(=O)[C@H]32)[C@@H](C)[C@@H]1O [Compound 57, 22-(2-(4-(4-(3-Chlorophenyl)-piperazin-1-yl)-methyl)-1H-1,2,3-triazol-1-yl)-22-deoxy pleuromutilin]",8,32,16,16
4,8,8,8,"C=C[C@]1(C)C[C@@H](OC(=O)Cn2cc(CN3CCN(c4ccc(C)cc4)CC3)nn2)[C@]2(C)[C@H](C)CC[C@]3(CCC(=O)[C@H]32)[C@@H](C)[C@@H]1O [Compound 52, 22-(2-(4-(4-(p-Tolyl)-piperazin-1-yl)-methyl)-1H-1,2,3-triazol-1-yl)-22-deoxy pleuromutilin]",8,32,16,8
4,16,16,8,"C=C[C@]1(C)C[C@@H](OC(=O)Cn2cc(CN3CCN(c4ccccc4Cl)CC3)nn2)[C@]2(C)[C@H](C)CC[C@]3(CCC(=O)[C@H]32)[C@@H](C)[C@@H]1O [Compound 56, 22-(2-(4-(4-(2-Chlorophenyl)-piperazin-1-yl)-methyl)-1H-1,2,3-triazol-1-yl)-22-deoxy pleuromutilin]",4,32,32,32
4,8,16,8,"C=C[C@]1(C)C[C@@H](OC(=O)Cn2cc(CN3CCN(c4ccc(Cl)cc4)CC3)nn2)[C@]2(C)[C@H](C)CC[C@]3(CCC(=O)[C@H]32)[C@@H](C)[C@@H]1O [Compound 58, 22-(2-(4-(4-(4-Chlorophenyl)-piperazin-1-yl)-methyl)-1H-1,2,3-triazol-1-yl)-22-deoxy pleuromutilin]",4,32,32,16
